The values below come from patent US20250313555A1, “2-SUBSTITUTED THIAZOLE AND BENZOTHIAZOLE COMPOSITIONS AND METHODS AS DUX4 INHIBITORS” (ALTAY THERAPEUTICS, INC., priority 2022, published 2025).

The structures appear in SMILES notation.

What all share (assay type): cell-based
Series [1] in a line: Cell cytotoxicity 50 assay (CC50), MB200 cells, cell titer glo. The note with it: human. A digest of the protocol:
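Luminescence from CellTiter-Glo after 72 h of compound exposure at 37 °C gave the CC50 for MB200 cells. These were plated at 10 k cells/well in triplicate in supplemented F10 medium and treated with a serial dilution series prepared from a 10 mM stock.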
For orientation: ATP-based viability assays read luminescence as a measure of living cells.

The nature of series [2]: Cell cytotoxicity 50 assay (CC50), HEK cells. The note with it: human. In a few lines:
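CC50 was fitted from total luminescence, measured 5 min after adding CellTiter-Glo reagent to HEK cells. The cells had been exposed for 72 h at 37 °C to medium serial dilutions prepared from a 10 mM drug solution.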

Series [3] relates to MBD3L2 RNA. Put plainly: RNA isolation and qPCR to determine MBD3L2 RNA levels in FSHD cells. The note with it: 48 hrs. In a few lines:
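FSHD cells were treated one day after seeding with a DUX4 inhibitor (11 μM or 3.6 μM) for 48 h. Total RNA was DNase-treated and reverse-transcribed with random hexamers and M-MLV. MBD3L2 was quantified by SYBR Green qPCR in triplicate against EEF1A as the reference gene.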
For orientation: Real-time PCR tracks product formation cycle by cycle.

Regarding `CC(=O)NCCCC(=O)NCCCc1nc2ccccc2s1` [Compound 106], the CC50 at 72 h in series [1] and in series [2] was greater than 10 µM throughout. Also, the “qPCR MBD3L2 Inhib at 11 µM” value in series [3] is reported as “YES”.
`CC(=O)NCCCC(=O)Nc1nc2ccccc2s1` [Compound 107]: the CC50 at 72 h in series [1] and in series [2] was greater than 10 µM in each case. Besides, in series [3], the “qPCR MBD3L2 Inhib at 11 µM” value is on record as “YES”.
`CC(C)(NC(=O)CCCN1CCCC1=O)c1ccc(-c2nc3ccccc3s2)cc1` [Compound 110]: the CC50 at 72 h in series [1] and in series [2] was greater than 10 µM in each case. For the same molecule, in series [3], the “qPCR MBD3L2 Inhib at 11 µM” value is on record as “YES”.
Take `CC(=O)NCCCC(=O)N[C@H]1C[C@H](c2nc3ccccc3s2)C1` [Compound 112]: the CC50 at 72 h in series [1] and in series [2] was greater than 10 µM throughout. The “qPCR MBD3L2 Inhib at 11 µM” value in series [3] was “YES”.
As to `CC(=O)NCCCC(=O)N[C@H]1C[C@@H](c2nc3ccccc3s2)C1` [Compound 113], the CC50 at 72 h in series [1] and in series [2] was greater than 10 µM throughout. Besides, the “qPCR MBD3L2 Inhib at 11 µM” value in series [3] is listed as “YES”.
In the case of `CC(=O)NCCCC(=O)N[C@@H]1CC[C@H](c2nc3ccccc3s2)C1` [Compound 114], the CC50 at 72 h in series [1] and in series [2] was greater than 10 µM each time. In addition, the “qPCR MBD3L2 Inhib at 11 µM” value in series [3] is recorded as “YES”.
For the molecule `CC(=O)NCCCC(=O)N[C@H]1CC[C@H](c2nc3ccccc3s2)C1` [Compound 115], the CC50 at 72 h in series [1] and in series [2] was greater than 10 µM each time. The “qPCR MBD3L2 Inhib at 11 µM” value in series [3] is given as “YES”.
Consider `O=C(CCCN1CCCC1=O)NC1CCCC1c1nc2ccccc2s1` (stereo not drawn) [Compound 117], for which the CC50 at 72 h in series [1] and in series [2] was greater than 10 µM throughout. Further, in series [3], the “qPCR MBD3L2 Inhib at 11 µM” value is “YES”.
Consider `O=C(CCCN1CCCC1=O)NCCCc1nc2ccccc2s1` [Compound 118], for which the CC50 at 72 h in series [1] and in series [2] was greater than 10 µM each time. The “qPCR MBD3L2 Inhib at 11 µM” value in series [3] is given as “YES”.
Take `O=C(Cc1ccc(-c2nc3ccccc3s2)cc1)NCCN1CCCC1=O` [Compound 119]: the CC50 at 72 h in series [1] and in series [2] was greater than 10 µM in each case. Also, in series [3], the “qPCR MBD3L2 Inhib at 11 µM” value is “YES”.
Consider `C=C(C)NCCC(=C)Nc1cc(C)cc(Cc2nc3ccccc3s2)c1` [Compound 120], for which the CC50 at 72 h in series [1] and in series [2] was greater than 10 µM each time. Moreover, the “qPCR MBD3L2 Inhib at 11 µM” value in series [3] is recorded as “YES”.
With `CC(=O)NCCCC(=O)Nc1nc(-c2ccccc2)cs1` [Compound 126], the CC50 at 72 h in series [1] and in series [2] was greater than 10 µM each time. Also, the “qPCR MBD3L2 Inhib at 11 µM” value in series [3] is “YES”.
Turning to `CC(=O)NC1CCC(C(=O)Nc2nc3ccccc3s2)C1` (stereo not drawn) [Compound 131], the CC50 at 72 h in series [1] and in series [2] was greater than 10 µM each time. Besides, the “qPCR MBD3L2 Inhib at 11 µM” value in series [3] is recorded as “YES”.
For the molecule `CC(=O)NC1CCC(C(=O)N[C@H]2CC[C@H](c3nc4ccccc4s3)CC2)C1` (stereo partly drawn) [Compound 134], the CC50 at 72 h in series [1] and in series [2] was greater than 10 µM throughout. Besides, the “qPCR MBD3L2 Inhib at 11 µM” value in series [3] is listed as “YES”.
Take `CC(=O)NCCCc1nc(CCCC(=O)Nc2ccc(-c3nc4cc(F)ccc4s3)cc2)co1` [Compound 138]: the 50% cytotoxic concentration (CC50) (usually the concentration at which the toxic effect on the cells reaches its halfway point) at 72 h in series [1] is greater than 10 µM; in series [2], 1 to 10 µM. In addition, the “qPCR MBD3L2 Inhib at 11 µM” value in series [3] is “YES”.
Take `CN(C(=O)CCCN1C(=O)CCC1=O)c1ccc(-c2nc3cc(F)ccc3s2)cc1` [Compound 144]: the CC50 at 72 h in series [1] and in series [2] was greater than 10 µM in each case. Further, in series [3], the “qPCR MBD3L2 Inhib at 11 µM” value is given as “YES”.
For `CC(=O)NCCCNC(=O)c1ccc(-c2nc3ccccc3s2)o1` [Compound 149], the CC50 at 72 h in series [1] and in series [2] was greater than 10 µM each time. The “qPCR MBD3L2 Inhib at 11 µM” value in series [3] is “YES”.
Take `O=C(CCCCN1C(=O)CCC1=O)N[C@H]1CC[C@@H](c2nc3ccccc3s2)CC1` [Compound 151]: the CC50 at 72 h in series [1] and in series [2] was greater than 10 µM in each case. Moreover, the “qPCR MBD3L2 Inhib at 11 µM” value in series [3] was “YES”.
On to `O=C(CCCc1cccnc1)NC1CCC(c2nc3ccccc3s2)C1` (stereo not drawn) [Compound 157], for which the CC50 at 72 h in series [1] and in series [2] was greater than 10 µM in each case. Moreover, the “qPCR MBD3L2 Inhib at 11 µM” value in series [3] is on record as “YES”.
As to `O=C(CCCN1C(=O)CCC1=O)NC1CCC(Cc2nc3ccccc3s2)C1` (stereo not drawn) [Compound 158], the CC50 at 72 h in series [1] and in series [2] was greater than 10 µM throughout. The “qPCR MBD3L2 Inhib at 11 µM” value in series [3] is listed as “YES”.
For `O=C(CCCN1C(=O)CCC1=O)N[C@@H]1CC[C@@H](c2nc3ccccc3s2)C1` [Compound 162], the CC50 at 72 h in series [1] and in series [2] was greater than 10 µM each time. Besides, the “qPCR MBD3L2 Inhib at 11 µM” value in series [3] is given as “YES”.
Regarding `O=C(CCCc1cccnc1)N[C@H]1CC[C@@H](c2nc3ccccc3s2)CC1` [Compound 163], the CC50 at 72 h in series [1] and in series [2] was greater than 10 µM in each case. In series [3], the “qPCR MBD3L2 Inhib at 11 µM” value is on record as “YES”.
Regarding `O=C(CCCc1cccnc1)N[C@H]1CC[C@H](c2nc3ccccc3s2)CC1` [Compound 164], the CC50 at 72 h in series [1] and in series [2] was greater than 10 µM throughout. In addition, the “qPCR MBD3L2 Inhib at 11 µM” value in series [3] is “YES”.
As for `CN(C(=O)CCCN1C(=O)CCC1=O)c1ccc(Cc2nc3ccccc3s2)cc1` [Compound 169], the CC50 at 72 h in series [1] and in series [2] was greater than 10 µM throughout. In addition, the “qPCR MBD3L2 Inhib at 11 µM” value in series [3] was “YES”.
`CC(=O)NCCCC(=O)N[C@H]1CC[C@@H](Cc2nc3ccccc3s2)CC1` [Compound 171]: the CC50 at 72 h in series [1] and in series [2] was greater than 10 µM throughout. For the same molecule, the “qPCR MBD3L2 Inhib at 11 µM” value in series [3] is listed as “YES”.
On to `CC(=O)NCCCC(=O)N[C@H]1CC[C@H](Cc2nc3ccccc3s2)CC1` [Compound 172], for which the CC50 at 72 h in series [1] and in series [2] was greater than 10 µM each time. In addition, the “qPCR MBD3L2 Inhib at 11 µM” value in series [3] is on record as “YES”.
As to `CC(=O)NCCCNC(=O)C12CCC(c3nc4ccccc4s3)(CC1)CC2` [Compound 173], the CC50 at 72 h in series [1] and in series [2] was greater than 10 µM each time. Moreover, the “qPCR MBD3L2 Inhib at 11 µM” value in series [3] is on record as “YES”.
For the molecule `CN(C(=O)CCC1CCC(=O)N1)c1ccc(-c2nc3ccccc3s2)cc1` (stereo not drawn) [Compound 177], the CC50 at 72 h in series [1] and in series [2] was greater than 10 µM in each case. The “qPCR MBD3L2 Inhib at 11 µM” value in series [3] is “YES”.
On to `O=C(CCC1CCC(=O)N1)Nc1ccc(Cc2nc3ccccc3s2)cc1` (stereo not drawn) [Compound 178], for which the CC50 at 72 h in series [1] and in series [2] was greater than 10 µM throughout. For the same molecule, the “qPCR MBD3L2 Inhib at 11 µM” value in series [3] is “YES”.
As for `O=C(CCC1CCC(=O)N1)Nc1ccc(-c2nc3ccccc3s2)o1` (stereo not drawn) [Compound 179], the CC50 at 72 h in series [1] and in series [2] was greater than 10 µM in each case. Further, in series [3], the “qPCR MBD3L2 Inhib at 11 µM” value is “YES”.
For `CC(=O)N[C@@H]1CC[C@H](C(=O)Nc2nc3ccccc3s2)C1` [Compound 182], the CC50 at 72 h in series [1] and in series [2] was greater than 10 µM in each case. Also, in series [3], the “qPCR MBD3L2 Inhib at 11 µM” value is on record as “YES”.
For `CC(=O)N[C@H]1CC[C@@H](C(=O)Nc2nc3ccccc3s2)C1` [Compound 183], the CC50 at 72 h in series [1] and in series [2] was greater than 10 µM in each case. In series [3], the “qPCR MBD3L2 Inhib at 11 µM” value is on record as “YES”.
As to `CC(=O)N[C@@H]1CC[C@@H](C(=O)Nc2nc3ccccc3s2)C1` [Compound 185], the CC50 at 72 h in series [1] and in series [2] was greater than 10 µM each time. The “qPCR MBD3L2 Inhib at 11 µM” value in series [3] is on record as “YES”.
Consider `CC(=O)NCCCNC(=O)c1cc(C#N)cc(-c2nc3cc(F)ccc3s2)c1` [Compound 188], for which the CC50 at 72 h in series [1] and in series [2] was greater than 10 µM each time. In addition, the “qPCR MBD3L2 Inhib at 11 µM” value in series [3] is “YES”.
